Source: the supplement of paper PMC13380429

Columns and labels:
Conditions in all cases: 72 h
Vero E6 [1] = assay: drug sensitivity score (DSS) for viability; higher = more toxic; extreme values may be limits of the assay
U2OS [2] = assay: as above
Caco-2 [3] = assay: as above
HepG2 [4] = assay: as above
Vero E6 [5] = assay: relative viability EC50 (midpoint between 100% and the lowest measured viability); higher = less toxic
U2OS [6] = assay: as above
Caco-2 [7] = assay: as above
HepG2 [8] = assay: as above
Vero E6 [9] = assay: cell viability relative to DMSO; higher = less toxic
U2OS [10] = assay: as above
Caco-2 [11] = assay: as above
HepG2 [12] = assay: as above

SMILES | drug sensitivity score (Vero E6 [1]) | drug sensitivity score (U2OS [2]) | drug sensitivity score (Caco-2 [3]) | drug sensitivity score (HepG2 [4]) | relative viability EC50 (Vero E6 [5]) [µM] | relative viability EC50 (U2OS [6]) [µM] | relative viability EC50 (Caco-2 [7]) [µM] | relative viability EC50 (HepG2 [8]) [µM] | cell viability (Vero E6 [9]; 1 nM) [%] | cell viability (Vero E6 [9]; 10 nM) [%] | cell viability (Vero E6 [9]; 100 nM) [%] | cell viability (Vero E6 [9]; 1000 nM) [%] | cell viability (Vero E6 [9]; 10000 nM) [%] | cell viability (U2OS [10]; 1 nM) [%] | cell viability (U2OS [10]; 10 nM) [%] | cell viability (U2OS [10]; 100 nM) [%] | cell viability (U2OS [10]; 1000 nM) [%] | cell viability (U2OS [10]; 10000 nM) [%] | cell viability (Caco-2 [11]; 1 nM) [%] | cell viability (Caco-2 [11]; 10 nM) [%] | cell viability (Caco-2 [11]; 100 nM) [%] | cell viability (Caco-2 [11]; 1000 nM) [%] | cell viability (Caco-2 [11]; 10000 nM) [%] | cell viability (HepG2 [12]; 1 nM) [%] | cell viability (HepG2 [12]; 10 nM) [%] | cell viability (HepG2 [12]; 100 nM) [%] | cell viability (HepG2 [12]; 1000 nM) [%] | cell viability (HepG2 [12]; 10000 nM) [%]
CCS(=O)(=O)N1CC(CC#N)(n2cc(-c3ncnc4[nH]ccc34)cn2)C1 [baricitinib] | 0 | 0 | 0 | 0 | > 10 | > 10 | > 10 | > 10 | 98.6 | 100 | 102 | 102 | 101 | 95.4 | 98.5 | 95.1 | 94.4 | 96.4 | 95.6 | 102 | 92.9 | 97 | 99.7 | 98.6 | 106 | 91.1 | 107 | 90.3
COc1cc(CNC(=O)CCCC/C=C/C(C)C)ccc1O [capsaicin] | 0 | 0 | 0 | – | > 10 | > 10 | > 10 | – | 96.4 | 100 | 106 | 107 | 102 | 106 | 100 | 101 | 98.4 | 100 | 116 | 90.9 | 103 | 91.2 | 107 | – | – | – | – | –
CC(=O)N[C@H](Cc1ccc2ccccc2c1)C(=O)N[C@H](Cc1ccc(Cl)cc1)C(=O)N[C@H](Cc1cccnc1)C(=O)N[C@@H](CO)C(=O)N[C@@H](Cc1ccc(O)cc1)C(=O)N[C@H](CCCNC(N)=O)C(=O)N[C@@H](CC(C)C)C(=O)N[C@@H](CCCNC(=N)N)C(=O)N1CCC[C@H]1C(=O)N[C@H](C)C(N)=O [cetrorelix] | 0 | 0 | 0 | 0.6 | > 10 | > 10 | > 10 | > 10 | 105 | 101 | 105 | 99.3 | 90.3 | 102 | 93.6 | 96.9 | 95.1 | 100 | 117 | 95.5 | 110 | 114 | 104 | 102 | 93.7 | 101 | 97.8 | 83.1
O=C(O)/C=C(/CC(=O)O)C(=O)O [cis-aconitic-acid] | 0 | 0 | 0 | 0 | > 10 | > 10 | > 10 | > 10 | 99 | 103 | 94.9 | 97.8 | 109 | 98.3 | 99.1 | 101 | 96.7 | 103 | 88.4 | 97.1 | 98.6 | 90 | 93.4 | 105 | 105 | 91.6 | 113 | 98.9
